The compounds below were run against T1, HIV-1 protease (Human immunodeficiency virus type 1 group M subtype B, UniProt P04585) (assay: HIV-1 Protease Inhibition Assay). Details: fluorogenic substrate assay.
T1 construct: made in house; host or cells: E. coli BL21 (dE3)pLysS, pET30a vector
Assay type: biochemical
Description: Assays of the dose-response effect of inhibitor compounds can be described as a curve expressing a degree of inhibition as a function of concentration. The curve theoretically passes through a point at which the concentration is sufficient to reduce activity of the HIV protease enzyme to a level that is 50% that of the difference between minimal and maximal enzyme activity in the assay.
HIV-1 Protease Inhibition Assay
The HIV-1 protease gene was subcloned into the pET30a vector (Novagen) and then transformed into BL21 (dE3)pLysS cells for protein expression. Protein expression and purification were followed according to Tang's procedure (Hong et al., Biochemistry, 1996, 35, 10627-10633). […] The inclusion body containing some bacterial proteins was thoroughly washed by using TRITON X-100, solubilized in […] and passed through the Q-sepharose column to remove the bacterial proteins which interfered with subsequent refolding steps. HIV-1 protease was refolded from the urea to an active form by dialysis. As a final step, gel filtration chromatography was used to remove impurities after refolding. Activities of purified HIV-1 protease were examined using a fluorogenic substrate, 2-aminobenzoyl-Thr-Ile-Nle-Phe(pNO2)-Gln-Arg-NH2 (Novabiochem). […] In the condition of So<<Km, v=Eo(kcat/Km)So, where Eo is the total enzyme concentration, and So is the substrate concentrate. […] Assays are carried out as described by Toth and Marshall (Toth et al., Int. J. Pept. Protein Res., 1990, 36, 544-50).
`CC(C)(C)NC(=O)[C@@H]1C[C@@H]2CCCC[C@@H]2CN1C[C@@H](O)[C@H](Cc1ccccc1)NC(=O)OC1CCCC12CCCO2` (single isomer, unassigned) [Compound 144] gave an IC50 of 40 nM.
For `CC(C)(C)NC(=O)[C@@H]1C[C@@H]2CCCC[C@@H]2CN1C[C@@H](O)[C@H](Cc1ccccc1)NC(=O)OC1CCCC12CCCO2` (single isomer, unassigned) [Compound 145], the IC50 was 96 nM.
`CC(C)CN(C[C@@H](O)[C@H](Cc1ccccc1)NC(=O)OC1CCCC12CCCO2)S(=O)(=O)c1cccc(O)c1` (some centres unmarked) [Compound 75] gave an IC50 of 6.7 nM and a Ki of 2.1 nM.
`CC(C)CN(C[C@@H](O)[C@H](Cc1ccccc1)NC(=O)OC1CC2CCO[C@@H]2C1)S(=O)(=O)c1cccc(O)c1` (some centres unmarked) [Compound 79] showed an IC50 of 5.5 nM and a Ki of 1.7 nM.
With `CC(C)CN(C[C@@H](O)[C@H](Cc1ccccc1)NC(=O)OC1CC2CCO[C@@H]2C1)S(=O)(=O)c1ccc(OC2CCCCO2)c(OC2CCCCO2)c1` (some centres unmarked) [Compound 87] the IC50 was 30 nM and the Ki was 9.3 nM.
For `CC(C)CN(C[C@@H](O)[C@H](Cc1ccccc1)NC(=O)OC1CC2CCO[C@@H]2C1)S(=O)(=O)c1cc(OC2CCCCO2)cc(OC2CCCCO2)c1` (some centres unmarked) [Compound 99], the IC50 was 3.9 nM and the Ki was 1.2 nM.
Work on `CC(C)CN(C[C@@H](O)[C@H](Cc1ccccc1)NC(=O)OC1CC2CCO[C@@H]2C1)S(=O)(=O)c1cc(O)cc(O)c1` (some centres unmarked) [Compound 100] yielded an IC50 of 247 nM and a Ki of 77 nM.
Work on `CC(C)CN(C[C@@H](O)[C@H](Cc1ccccc1)NC(=O)OC1CC2CCO[C@@H]2C1)S(=O)(=O)c1cccc(CO)c1` (some centres unmarked) [Compound 113] yielded an IC50 of 4 nM.
`CC(C)CN(C[C@@H](O)[C@H](Cc1ccccc1)NC(=O)OC1CO[C@H]2OCCC12)S(=O)(=O)c1cccc(CO)c1` (some centres unmarked) [Compound 114] was tested, and the IC50 was 1.1 nM.
In the case of `Cc1ccc(S(=O)(=O)OCc2ccc(S(=O)(=O)N(CC(C)C)C[C@@H](O)[C@H](Cc3ccccc3)NC(=O)OC3CO[C@H]4OCCC34)cc2)cc1` (some centres unmarked) [Compound 117], the IC50 is reported as 2.4 nM and the Ki is reported as 0.74 nM.
With `CC(C)CN(C[C@@H](O)[C@H](Cc1ccccc1)NC(=O)OC1CO[C@H]2OCCC12)S(=O)(=O)c1ccc(CN)cc1` (some centres unmarked) [Compound 118] the IC50 was 2.7 nM and the Ki was 0.9 nM.
In the case of `CC(C)CN(C[C@@H](O)[C@H](Cc1ccccc1)NC(=O)OC1CO[C@H]2OCCC12)S(=O)(=O)c1cccc(/C=N/O)c1` (some centres unmarked) [Compound 120], the IC50 is reported as 2.4 nM and the Ki is reported as 0.74 nM.
`CC(C)CN(C[C@@H](O)[C@H](Cc1ccccc1)NC(=O)OC1CO[C@H]2OCCC12)S(=O)(=O)c1ccc(/C=C/CO)cc1` (some centres unmarked) [Compound 121] was tested, and the IC50 was 3 nM.
`CC(C)CN(C[C@@H](O)[C@H](Cc1ccccc1)NC(=O)OC1CC2CCO[C@@H]2C1)S(=O)(=O)c1ccc(CN)cc1` (some centres unmarked) [Compound 125] showed an IC50 of 3.5 nM and a Ki of 1.1 nM.
`CNCc1ccc(S(=O)(=O)N(CC(C)C)C[C@@H](O)[C@H](Cc2ccccc2)NC(=O)OC2CC3CCO[C@@H]3C2)cc1` (some centres unmarked) [Compound 126] showed an IC50 of 15 nM.
For `CC(C)CN(C[C@@H](O)[C@H](Cc1ccccc1)NC(=O)OC1CC2CCO[C@@H]2C1)S(=O)(=O)c1ccc(CN(C)C)cc1` (some centres unmarked) [Compound 127], the IC50 was 50 nM.
`CC(C)CN(C[C@@H](O)[C@H](Cc1ccccc1)NC(=O)OC1CC2CCO[C@@H]2C1)S(=O)(=O)c1ccc(C=NO)cc1` (some centres unmarked) [Compound 128] was tested, and the IC50 was 1.7 nM and the Ki was 0.53 nM.
`CC(C)CN(C[C@@H](O)[C@H](Cc1ccccc1)NC(=O)OC1CC2CCO[C@@H]2C1)S(=O)(=O)c1cccc(C=NO)c1` (some centres unmarked) [Compound 129] was tested, and the IC50 was 2.9 nM and the Ki was 0.9 nM.
Compound `COCc1ccc(S(=O)(=O)N(CC(C)C)C[C@@H](O)[C@H](Cc2ccccc2)NC(=O)OC2CC3CCO[C@@H]3C2)cc1` (some centres unmarked) [Compound 130] has an IC50 of 0.8 nM.
`Cc1ccc(S(=O)(=O)N(CC(C)C)C[C@@H](O)[C@H](Cc2ccccc2)NC(=O)OC2CC3CCO[C@@H]3C2)cc1` (some centres unmarked) [Compound 131] gave an IC50 of 1.4 nM.
`CC(C)CN(C[C@@H](O)[C@H](Cc1ccccc1)NC(=O)OC1CC2CCO[C@@H]2C1)S(=O)(=O)c1cccc2cccnc12` (some centres unmarked) [Compound 132] was tested, and the IC50 was 12 nM and the Ki was 3.7 nM.
`CC(C)CN(C[C@@H](O)[C@H](Cc1ccccc1)NC(=O)OC1CC2CCO[C@@H]2C1)S(=O)(=O)Cc1ccccc1` (some centres unmarked) [Compound 133] was tested, and the IC50 was 48 nM and the Ki was 15 nM.
With `CC(C)CN(C[C@@H](O)[C@H](Cc1ccccc1)NC(=O)OC1CC2CCO[C@@H]2C1)C(=O)c1cc(O)cc(O)c1` (some centres unmarked) [Compound 134] the IC50 was 3000 nM and the Ki was 931 nM.
Work on `CC(C)CN(C[C@@H](O)[C@H](Cc1ccccc1)NC(=O)OC(C)(C)C)S(=O)(=O)c1ccc(CN2CCN(C)CC2)cc1` [Compound 137] yielded an IC50 of 2100 nM.
`CC(C)CN(C[C@@H](O)[C@H](Cc1ccccc1)NC(=O)O[C@H]1CCOC1)S(=O)(=O)c1ccc(CN2CCN(C)CC2)cc1` [Compound 138] showed an IC50 of 270 nM.
In the case of `CC(C)CN(C[C@@H](O)[C@H](Cc1ccccc1)NC(=O)O[C@H]1CCOC1)S(=O)(=O)c1ccc(CN2CCOCC2)cc1` [Compound 139], the IC50 is reported as 968 nM.
For `CC(C)(C)NC(=O)[C@@H]1C[C@@H]2CCCC[C@@H]2CN1C[C@@H](O)[C@H](Cc1ccccc1)NC(=O)OC1CC2CCO[C@@H]2C1` (some centres unmarked) [Compound 143], the IC50 was 3 nM.
`CC(C)(C)NC(=O)[C@@H]1C[C@@H]2CCCC[C@@H]2CN1C[C@@H](O)[C@H](Cc1ccccc1)NC(=O)O[C@H]1CCC2(CCCO2)C1` (some centres unmarked) [Compound 145a] showed an IC50 of 500 nM.
`CC(C)(C)NC(=O)[C@@H]1C[C@@H]2CCCC[C@@H]2CN1C[C@@H](O)[C@H](Cc1ccccc1)NC(=O)OC1CC[C@@]2(CCCO2)C1` (some centres unmarked) [Compound 145b] was tested, and the IC50 was > 2000 nM.
In the case of `COc1ccc(S(=O)(=O)N(CC(C)C)C[C@@H](O)[C@H](Cc2ccccc2)NC(=O)OC2CC[C@@]3(CCCO3)C2)cc1` (some centres unmarked) [Compound 145c], the IC50 is reported as 15 nM.
In the case of `COc1ccc(S(=O)(=O)N(CC(C)C)C[C@@H](O)[C@H](Cc2ccccc2)NC(=O)O[C@H]2CC[C@]3(CCCO3)C2)cc1` [Compound 145d], the IC50 is reported as 4.6 nM.
In the case of `Cc1ccc(S(=O)(=O)N(CC(C)C)C[C@@H](O)[C@H](CC2CCN(C(=O)c3ccccc3)CC2)NC(=O)OC2CO[C@H]3OCCC23)cc1` (some centres unmarked) [Compound 146], the IC50 is reported as 1.8 nM.
`Cc1ccc(S(=O)(=O)N(CC(C)C)C[C@@H](O)[C@H](CC2CCN(C(=O)c3ccccc3)CC2)NC(=O)O[C@H]2CCOC2)cc1` [Compound 147] showed an IC50 of 60 nM.
With `Cc1ccc(S(=O)(=O)N(CC(C)C)C[C@@H](O)[C@H](CC2CCN(C(=O)c3ccccc3)CC2)NC(=O)OC2CCCC23CCCO3)cc1` (some centres unmarked) [Compound 148] the IC50 was 185 nM.
With `Cc1ccc(S(=O)(=O)N(CC(C)C)C[C@@H](O)[C@H](CC2CCN(Cc3ccccc3)CC2)NC(=O)OC2CO[C@H]3OCCC23)cc1` (some centres unmarked) [Compound 149] the IC50 was 20 nM.
`Cc1ccc(S(=O)(=O)N(CC(C)C)C[C@@H](O)[C@H](CC2CCN(Cc3ccccc3)CC2)NC(=O)O[C@H]2CCOC2)cc1` [Compound 150] was tested, and the IC50 was 540 nM.
Compound `CC(C)CN(C[C@@H](O)[C@H](Cc1ccccc1)NC(=O)OC1CO[C@H]2OCCC12)S(=O)(=O)c1ccc(Cl)c(O)c1` (some centres unmarked) [Compound 151] has an IC50 of 3.1 nM and a Ki of 1 nM.
`CC(C)CN(C[C@@H](O)[C@H](Cc1ccccc1)NC(=O)OC1CC2CCO[C@@H]2C1)S(=O)(=O)c1ccc(Cl)c(O)c1` (some centres unmarked) [Compound 152] showed an IC50 of 5.2 nM and a Ki of 1.8 nM.
`CC(C)CN(C[C@@H](O)[C@H](Cc1ccccc1)NC(=O)O[C@H]1CCOC1)S(=O)(=O)c1ccc(Cl)c(O)c1` [Compound 153] showed an IC50 of 3.6 nM and a Ki of 1.1 nM.
Compound `O=C(N[C@@H](Cc1ccccc1)[C@H](O)CN(CCN1CCOCC1)S(=O)(=O)c1ccc(Cl)c(O)c1)OC1CO[C@H]2OCCC12` (some centres unmarked) [Compound 154] has an IC50 of 25 nM and a Ki of 7.8 nM.
`O=C(N[C@@H](Cc1ccccc1)[C@H](O)CN(CCN1CCOCC1)S(=O)(=O)c1ccc(Cl)c(O)c1)OC1CC2CCO[C@@H]2C1` (some centres unmarked) [Compound 155] showed an IC50 of 16 nM and a Ki of 4.9 nM.
`Cc1ccc(S(=O)(=O)N(CC(C)C)C[C@@H](O)[C@H](Cc2ccccc2)NC(=O)OC2CO[C@H]3OCCC23)cc1CO` (some centres unmarked) [Compound 156] gave an IC50 of 3.1 nM and a Ki of 0.97 nM.
In the case of `Cc1ccc(S(=O)(=O)N(CC(C)C)C[C@@H](O)[C@H](Cc2ccccc2)NC(=O)OC2CC3CCO[C@@H]3C2)cc1CO` (some centres unmarked) [Compound 157], the IC50 is reported as 2.8 nM and the Ki is reported as 0.87 nM.
`Cc1ccc(S(=O)(=O)N(CCN(C)C)C[C@@H](O)[C@H](Cc2ccccc2)NC(=O)OC2CO[C@H]3OCCC23)cc1CO` (some centres unmarked) [Compound 158] showed an IC50 of 105 nM and a Ki of 32 nM.
Compound `Cc1ccc(S(=O)(=O)N(CCN(C)C)C[C@@H](O)[C@H](Cc2ccccc2)NC(=O)O[C@H]2C[C@H]3CCO[C@H]3C2)cc1CO` [Compound 159] has an IC50 of 204 nM and a Ki of 63 nM.
Work on `Cc1ccc(S(=O)(=O)N(CCN(C)C)C[C@@H](O)[C@H](Cc2ccccc2)NC(=O)O[C@@H]2CO[C@@H]3OCCC[C@@H]32)cc1CO` [Compound 160] yielded an IC50 of 231 nM and a Ki of 72 nM.
For `Cc1ccc(S(=O)(=O)N(C[C@@H](O)[C@H](Cc2ccccc2)NC(=O)OC2CO[C@H]3OCCC23)C2CCOC2)cc1CO` (some centres unmarked) [Compound 161], the IC50 was 2 nM and the Ki was 1.6 nM.
Compound `Cc1ccc(S(=O)(=O)N(C[C@@H](O)[C@H](Cc2ccccc2)NC(=O)OC2CC3CCO[C@@H]3C2)C2CCOC2)cc1CO` (some centres unmarked) [Compound 162] has an IC50 of 4.1 nM and a Ki of 1.3 nM.

Reference: US20070082883A1, “HIV protease inhibitors” (THE BOARD OF TRUSTEES OF THE UNIVERSITY OF ILLINOIS, priority 2002, published 2007)
